Where two headings read alike, the source gives them in different places.
Columns and labels:
[1] = test system: MLE cells; experiment: MLE cells protein immunoblotting; assay type: cell-based, murine; details: different concentrations, 16 h
Source text: (§1) FIGS. 10A-10E. BC-1215 inhibits FBXO3 and decreases TRAF protein levels. FIG. 10A. […] FIG. 10B. In vitro ubiquitination assays. […] FIG. 10C. […] Cells were collected and assayed for immunoblotting. FIG. 10D. […] FIG. 10E.
(§2) BC-1215 inhibits FBXO3 and decreases TRAF protein levels. […] Cells were collected and assayed for protein immunoblotting.

[2] = test system: C57BL6 mice; experiment: Pseudomonas aeruginosa PA103 pneumonia model; assay type: in vivo; details: 100 ug IP, PA103 18 h
[3] = test system: C57BL6 mice; assay type: in vivo; details: mouse, in vivo
[4] = test system: U937 monocyte; experiment: U937 monocyte Trypan blue cell death (LD50); assay type: cell-based, human; details: U937 monocytes, 16 h
Description: FIGS. 20A-20J is a table depicting benzathine compounds, and assay results. PBMC cells (0.6 ml at 1.5*10^6/ml) were treated with 2 ug/ml LPS for 16 hrs along with each compound at different concentrations. IL1β and TNFα cytokine release were monitored by ELISA to calculate the IC50. U937 monocyte (0.6 ml at 1.5*10^6/ml) were treated with each compound at different concentrations for 16 h. Cells were then stained with Trypan blue to differentiate dead cells, and calculate the LD50. Therapeutic index (TI)=LD50/IC50. Compounds marked in red are high value targets (low IC50, high LD50) and require further testing in vivo.
Briefly, compounds were added to human PBMC cells at different concentrations that were exposed to […] and cytokine secretion was monitored by ELISA to determine the IC50. Compounds were also added to U937 monocytes at different concentrations, and cells were stained with trypan blue to determine the LD50. […] Several functional studies were undertaken to assess anti-inflammatory effects focusing on BC-1215.

[5] = test system: C57BL6 mice; experiment: DSS induced (acute) colitis; assay type: in vivo; details: 200 ug IP daily, 3.5% DSS up to five days
Description: FIGS. 17A-17D. BC-1215 reduces DSS induced colonic inflammation. FIGS. 17A-FIG. 17C. C57BL6 mice were fed with water containing 3.5% dextran sulfate sodium (DSS) for up to five days. Mice were treated with either vehicle or 100 ug of BC-1215 daily (via IP injection). Mice were then euthanized; the length of the colon was measured and graphed in (FIG. 17A). Colonic tissues were also analyzed for IL1β (FIG. 17B) and TNFα (FIG. 17C) by ELISA. (n=4 mice/group, *p<0.05 versus DSS) FIG. 17D, H&E staining was performed on colonic samples. (n=4 mice/group, *p<0.05 versus DSS)
FIGS. 24A-24E. […] A-D. C57BL6 mice were fed with water ad lib containing 3.5% dextran sulfate sodium (DSS) for up to five days. Mice were treated with either vehicle (control [CON]) or BC-1261 (150 μg) daily (via an i.p. injection), or BC-1261 were administered into drinking water at 30 μg/ml (po). Mice were then euthanized and the length of the colon was measured and graphed in (A-B). Colonic tissues were also analyzed for TNFα (C) and IL6(D). E. H&E staining was performed on colonic sections. The data represent n=4 mice/group, *P<0.05 versus DSS and **P<0.05 versus CON.
BC-1215 ameliorates DSS induced colitis. BC-1215 was also tested in a mouse colitis model to confirm its anti-inflammatory activity. Briefly, C57BL6 mice were fed with water containing 3.5% dextran sulfate sodium (DSS) for up to five days. Mice were treated with either vehicle or 200 ug of BC-1215 daily (via IP injection). Mice were then euthanized; the length of colons was measured. […] Colonic tissue cytokine levels were analyzed. […] Thus, the FBXO3 inhibitor BC-1215 suppresses inflammation in chemical induced colitis model in mice.

[6] = test system: C57BL6 mice; experiment: Carrageenan induced paw edema; assay type: in vivo; details: 200 ug IP daily, 48 h
Description: FIGS. 16A-16C. BC-1215 reduces Carrageenan induced paw edema. FIGS. 16A-16C. C57BL6 mice were deeply anesthetized with ketamine (80-100 mg/kg i.p.) and xylazine (10 mg/kg i.p.). Mice were received a subplantar administration of 25 ul of saline or 25 ul of carrageenan (1% in saline), followed by an IP injection of […] of BC-1215 daily for two days. Mice were then euthanized; the thickness and volume of paw was measured (FIG. 16B-16C). (n=4 mice/group, *p<0.05 versus vehicle)
BC-1215 ameliorates Carrageenan induced paw edema. BC-1215 also was tested in a mouse paw edema model to confirm its anti-inflammatory activity. Mice received subplantar administration of 25 ul of saline or 25 ul of carrageenan (1% in saline) (Posadas et al., Br J Pharmacol, 2004. 142(2):p. 331-8), followed by an IP injection of 200 ug of BC-1215 daily. 48 h later, mice were euthanized; the thickness and volume of the paw was measured. […] Thus, the FBXO3 inhibitor BC-1215 suppresses inflammation in a nonpulmonary model of edema involving the extremities.

[7] = test system: Staphylococcus aureus; experiment: Kirby-Bauer antibiotic sensitivity test on Mueller-Hinton agar; assay type: cell-based; details: 6 mm filter papers, 37 degrees, 24 h
Description: FIG. 19. Kirby-Bauer antibiotic testing. BC-1215 was tested in antibiotic sensitivity tests using Mueller-Hinton agar. Briefly, 6 mm filter papers containing different amounts of BC-1215 or gentamicin (positive control) were added on the Mueller-Hinton agar pre-exposed to Staphylococcus aureus. The plates were incubated at 37 degrees for 24 h. Zone sizes were measured and marked by a red circle indicating positive results.
Briefly, 6 mm filter papers containing different amounts of BC-1215 or gentamicin antibiotic (positive control) were added on the Mueller-Hinton agar pre-exposed to Staphylococcus aureus. The plates were incubated at 37 degrees for 24 h. Zone sizes were measured and marked by a red circle indicating positive results.

[8] = target: FBXO3 (Homo sapiens, UniProt Q9UK99); experiment: In vitro ubiquitination assay, SCFFBXO3 complex with V5-FBXL2 substrate; assay type: biochemical; details: increased concentration of compound
Source text: as §1, §2

FBXO3, sequence (Q9UK99 whole entry): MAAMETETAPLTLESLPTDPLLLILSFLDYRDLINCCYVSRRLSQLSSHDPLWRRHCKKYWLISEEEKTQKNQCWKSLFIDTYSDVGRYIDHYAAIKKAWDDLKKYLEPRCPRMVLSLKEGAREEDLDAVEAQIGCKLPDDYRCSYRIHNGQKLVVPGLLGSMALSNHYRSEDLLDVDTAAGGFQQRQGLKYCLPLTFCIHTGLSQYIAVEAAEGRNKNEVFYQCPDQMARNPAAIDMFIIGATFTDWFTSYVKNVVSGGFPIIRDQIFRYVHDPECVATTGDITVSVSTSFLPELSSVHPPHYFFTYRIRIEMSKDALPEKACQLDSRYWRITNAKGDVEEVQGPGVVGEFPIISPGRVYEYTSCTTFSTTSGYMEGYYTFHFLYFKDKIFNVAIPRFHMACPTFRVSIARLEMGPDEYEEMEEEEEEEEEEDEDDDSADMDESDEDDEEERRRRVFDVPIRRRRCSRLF
FBXO3, sequence (P63208 whole entry partner): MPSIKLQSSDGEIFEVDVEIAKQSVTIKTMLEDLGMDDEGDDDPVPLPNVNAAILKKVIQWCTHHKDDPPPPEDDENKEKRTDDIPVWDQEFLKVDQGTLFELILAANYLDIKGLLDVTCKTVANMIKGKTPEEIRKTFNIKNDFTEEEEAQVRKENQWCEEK
FBXO3, sequence (Q13616 whole entry partner): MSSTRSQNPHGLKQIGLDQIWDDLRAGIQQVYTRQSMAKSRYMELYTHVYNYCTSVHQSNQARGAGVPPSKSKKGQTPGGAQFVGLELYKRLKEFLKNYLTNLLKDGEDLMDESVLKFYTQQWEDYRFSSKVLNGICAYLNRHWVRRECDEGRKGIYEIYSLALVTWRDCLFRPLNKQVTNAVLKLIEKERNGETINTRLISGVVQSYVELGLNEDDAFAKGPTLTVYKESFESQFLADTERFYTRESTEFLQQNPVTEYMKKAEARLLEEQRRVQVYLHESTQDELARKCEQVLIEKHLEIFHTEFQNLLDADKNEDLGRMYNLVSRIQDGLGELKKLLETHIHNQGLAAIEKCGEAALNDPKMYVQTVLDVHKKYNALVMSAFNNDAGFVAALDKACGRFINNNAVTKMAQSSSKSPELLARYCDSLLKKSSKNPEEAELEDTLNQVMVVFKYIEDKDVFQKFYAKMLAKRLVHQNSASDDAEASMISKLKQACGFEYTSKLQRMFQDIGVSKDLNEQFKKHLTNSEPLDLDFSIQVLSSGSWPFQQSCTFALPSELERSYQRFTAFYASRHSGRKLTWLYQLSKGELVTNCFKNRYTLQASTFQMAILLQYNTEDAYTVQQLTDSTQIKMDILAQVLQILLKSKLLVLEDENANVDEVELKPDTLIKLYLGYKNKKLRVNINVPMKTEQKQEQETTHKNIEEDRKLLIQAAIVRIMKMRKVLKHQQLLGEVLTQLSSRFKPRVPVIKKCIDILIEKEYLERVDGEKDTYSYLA
FBXO3, sequence (P62877 whole entry partner): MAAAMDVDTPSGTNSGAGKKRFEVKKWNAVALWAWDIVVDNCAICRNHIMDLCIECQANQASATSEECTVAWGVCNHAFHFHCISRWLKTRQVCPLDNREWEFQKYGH

## c1ccc(-c2ccc(CNCCNCc3ccc(-c4ccccn4)cc3)cc2)nc1 [BC-1215]
[1]
  FBXL2 protein levels: increased FBXL2 protein levels in a dose dependent manner
  TRAF protein levels: decreasing TRAF protein levels
[2]
  cell infiltrates: decreased
  lavage cell counts: decreased
  lavage pro-inflammatory cytokine levels: significantly decreased
  lavage protein concentration: decreased
  lung compliance: increased compliance
  lung elastance: reduced elastance
  lung resistance: decreased lung resistance
[3]
  cell infiltrates: remarkably decreased
  lavage cell counts: remarkably decreased
  lavage protein concentration: remarkably decreased
  lung compliance: increased compliance
  lung edema: remarkably decreased
  lung elastance: reduced elastance
  survival: significantly increased their survival
[4]
  LD50: low
[5]
  IL1β levels in colon tissues: remarkable reduction
  TNFα levels in colon tissues: remarkable reduction
  colon length: no significant decrease in colon length compared to control
  colonic tissue injury (H&E): significantly reduced
[6]
  paw edema: significantly reduced
  paw thickness: significantly reduced
[7]
  S. aureus proliferation (zone of inhibition): inhibits S. aureus proliferation
[8]
  FBXO3 catalyzed FBXL2 polyubiquitination: able to inhibit FBXO3 catalyzed FBXL2 polyubiquitination
